These results are taken from US8815882B2, “Pyrazole aminopyrimidine derivatives as LRRK2 modulators” (Genentech, Inc., priority 2010, dated 2014).

One assay deals with T1, LRRK2 (Homo sapiens, UniProt Q5S007, G2019S).
T1 construct: purchased Invitrogen PV4882 (lot 567054A)
T1 sequence (Q5S007 whole entry G2019S): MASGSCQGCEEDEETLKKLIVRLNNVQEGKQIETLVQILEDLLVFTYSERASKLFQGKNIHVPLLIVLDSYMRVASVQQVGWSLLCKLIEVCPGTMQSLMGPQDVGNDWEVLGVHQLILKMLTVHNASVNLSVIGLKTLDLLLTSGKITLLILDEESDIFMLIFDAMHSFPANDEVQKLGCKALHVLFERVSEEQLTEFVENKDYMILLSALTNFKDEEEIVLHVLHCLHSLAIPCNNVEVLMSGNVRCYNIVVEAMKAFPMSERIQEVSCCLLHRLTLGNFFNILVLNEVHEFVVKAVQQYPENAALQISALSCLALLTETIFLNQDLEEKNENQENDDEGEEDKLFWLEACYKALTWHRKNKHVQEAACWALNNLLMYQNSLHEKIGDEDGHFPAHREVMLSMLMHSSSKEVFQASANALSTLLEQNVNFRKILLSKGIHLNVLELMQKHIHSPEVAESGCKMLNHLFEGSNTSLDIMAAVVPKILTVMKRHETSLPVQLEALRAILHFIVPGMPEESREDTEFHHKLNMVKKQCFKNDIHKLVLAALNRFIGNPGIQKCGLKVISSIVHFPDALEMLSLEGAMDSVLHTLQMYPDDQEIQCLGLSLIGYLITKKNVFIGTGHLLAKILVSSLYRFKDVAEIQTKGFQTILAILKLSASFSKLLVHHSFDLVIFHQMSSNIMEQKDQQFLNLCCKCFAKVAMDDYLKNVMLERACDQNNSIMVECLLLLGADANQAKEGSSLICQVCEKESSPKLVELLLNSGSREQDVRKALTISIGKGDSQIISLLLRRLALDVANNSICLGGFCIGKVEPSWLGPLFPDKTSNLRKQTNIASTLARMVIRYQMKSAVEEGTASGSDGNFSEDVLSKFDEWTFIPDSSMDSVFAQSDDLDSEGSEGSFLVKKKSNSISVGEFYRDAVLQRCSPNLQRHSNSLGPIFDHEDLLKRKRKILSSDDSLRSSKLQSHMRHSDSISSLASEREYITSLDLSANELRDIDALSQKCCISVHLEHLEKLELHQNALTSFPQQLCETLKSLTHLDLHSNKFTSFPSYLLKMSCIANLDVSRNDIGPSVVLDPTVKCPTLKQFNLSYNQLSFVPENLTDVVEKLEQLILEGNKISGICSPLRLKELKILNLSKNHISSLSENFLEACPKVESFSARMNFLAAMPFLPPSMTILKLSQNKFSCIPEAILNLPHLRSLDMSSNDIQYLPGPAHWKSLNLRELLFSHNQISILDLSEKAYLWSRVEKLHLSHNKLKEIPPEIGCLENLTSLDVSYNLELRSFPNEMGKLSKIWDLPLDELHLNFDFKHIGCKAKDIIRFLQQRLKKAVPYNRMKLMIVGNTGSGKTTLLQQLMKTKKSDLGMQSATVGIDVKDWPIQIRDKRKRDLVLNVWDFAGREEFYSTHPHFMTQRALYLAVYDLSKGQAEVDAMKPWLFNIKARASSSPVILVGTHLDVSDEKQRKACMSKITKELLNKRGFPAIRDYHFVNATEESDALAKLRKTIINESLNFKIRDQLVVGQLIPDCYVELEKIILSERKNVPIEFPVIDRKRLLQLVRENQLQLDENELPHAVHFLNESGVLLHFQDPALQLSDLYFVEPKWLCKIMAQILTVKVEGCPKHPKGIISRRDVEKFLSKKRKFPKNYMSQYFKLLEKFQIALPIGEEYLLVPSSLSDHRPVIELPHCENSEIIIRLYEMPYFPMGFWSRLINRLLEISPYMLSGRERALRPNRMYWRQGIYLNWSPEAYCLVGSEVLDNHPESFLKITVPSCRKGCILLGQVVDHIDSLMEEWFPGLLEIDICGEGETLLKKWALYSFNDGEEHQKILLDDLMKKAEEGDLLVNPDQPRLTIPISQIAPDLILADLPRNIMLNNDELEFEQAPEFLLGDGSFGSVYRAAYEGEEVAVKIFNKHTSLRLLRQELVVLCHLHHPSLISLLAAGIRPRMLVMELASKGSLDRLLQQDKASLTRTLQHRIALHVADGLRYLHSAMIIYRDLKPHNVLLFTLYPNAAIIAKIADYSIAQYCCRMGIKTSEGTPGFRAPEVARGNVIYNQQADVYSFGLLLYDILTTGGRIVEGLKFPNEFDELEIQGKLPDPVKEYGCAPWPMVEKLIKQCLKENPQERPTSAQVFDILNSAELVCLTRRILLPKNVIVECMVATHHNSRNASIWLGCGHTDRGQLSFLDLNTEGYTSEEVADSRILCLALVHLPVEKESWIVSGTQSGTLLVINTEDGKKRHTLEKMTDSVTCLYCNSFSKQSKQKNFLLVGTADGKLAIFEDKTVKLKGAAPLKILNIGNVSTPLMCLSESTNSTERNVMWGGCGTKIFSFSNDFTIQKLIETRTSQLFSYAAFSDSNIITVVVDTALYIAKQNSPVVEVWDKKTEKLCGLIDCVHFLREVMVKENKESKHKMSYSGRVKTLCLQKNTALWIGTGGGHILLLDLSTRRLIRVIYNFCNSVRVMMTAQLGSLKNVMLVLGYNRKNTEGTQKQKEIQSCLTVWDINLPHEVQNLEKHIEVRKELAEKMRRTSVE
Put plainly: In Vitro LRRK2 Assay (LabChip 3000, fluorescently-labeled peptide substrate, ATP). In kind it is biochemical. Conditions: Table 9; LRRK2 Ki (micromolar); read-out: LRRK2 Ki (KI). The method, boiled down: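 LRRK2, fluorescent peptide substrate (diluted to 4 μM before mixing), ATP and compound were incubated 2 h in the dark, then stopped. Phosphorylated and unphosphorylated peptide were separated by capillary electrophoresis and quantified by fluorescence. Ki was fitted with a tight-binding equation including enzyme concentration, S and Km; IC50 or percent inhibition were also reported.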
The Ki is a measure of affinity in units of concentration, obtained from inhibition or displacement. For `CNc1nc(Nc2cn(-c3ccccc3)nc2C)ncc1C#N` [Example 354, 2-(3-methyl-1-phenyl-1H-pyrazol-4-ylamino)-4-(methylamino) pyrimidine-5-carbonitrile], the inhibition constant Ki is 120 nM.

Turning to `CCn1ncc(Nc2ncc(C#N)c(NC)n2)c1C` [Example 351, 2-(1-ethyl-5-methyl-1H-pyrazol-4-ylamino)-4-(methylamino) pyrimidine-5-carbonitrile], the Ki was determined as 9.7 nM.

Staying with this assay, now noted: Table 10; LRRK2 Ki (micromolar); read-out: LRRK2 Ki (KI).
On to `CCNc1nc(Nc2cnn(C(C)(C)C(=O)NC)c2C)ncc1C(F)(F)F` [Example 448, 2-[4-(4-Ethylamino-5-trifluoromethyl-pyrimidin-2-ylamino)-5-methyl-pyrazol-1-yl]-N-methyl-isobutyramide], for which the Ki was 15.3 nM.

For `CNC(=O)C(C)(C)n1ncc(Nc2ncc(C(F)(F)F)c(NC3CC3)n2)c1C` [Example 450, 2-[4-(4-Cyclopropylamino-5-trifluoromethyl-pyrimidin-2-ylamino)-5-methyl-pyrazol-1-yl]-N-methyl-isobutyramide], the Ki is 7.1 nM.

On to `CCNc1nc(Nc2cn(C(C)(C)C(=O)NC)nc2C)ncc1C(F)(F)F` [Example 453, 2-[4-(4-Ethylamino-5-trifluoromethyl-pyrimidin-2-ylamino)-3-methyl-pyrazol-1-yl]-N-methyl-isobutyramide], for which the Ki came out at 9.2 nM.

Staying with this assay, now noted: read-out: LRRK2 Ki (KI), Table 7.
As for `CNc1nc(Nc2ccn(C(C)C)n2)ncc1C(F)(F)F` [Example 57, N^2-(1-isopropyl-1H-pyrazol-3-yl)-N4-methyl-5-(trifluoromethyl) pyrimidine-2,4-diamine], the inhibitory constant (Ki) worked out at 2.5 nM.

Regarding `COc1nc(Nc2cnn(-c3ccc(S(C)(=O)=O)cc3)c2C)ncc1Cl` [Example 60, 5-chloro-4-methoxy-N-(5-methyl-1-(4-(methylsulfonyl)phenyl)-1H-pyrazol-4-yl)pyrimidin-2-amine], the Ki amounted to 15 nM.

Consider `Cc1c(Nc2ncc(Cl)c(OCC(F)(F)F)n2)cnn1C` [Example 64, 5-chloro-N-(1,5-dimethyl-1H-pyrazol-4-yl)-4-(2,2,2-trifluoroethoxy) pyrimidin-2-amine], for which the Ki is 58.6 nM.

Regarding `COc1nc(Nc2cn(C(C)(C)C#N)nc2C)ncc1Cl` [Example 73, 2-(4-(5-chloro-4-methoxy-pyrimidin-2-ylamino)-3-methyl-1H-pyrazol-1-yl)-2-methylpropane-nitrile], the Ki turned out to be 14 nM.

Turning to `CCNc1nc(Nc2cnn(C3CCN(CC4OCCO4)CC3)c2C)ncc1C(F)(F)F` [Example 87, N^2-[1-(1-[1,3]Dioxolan-2-ylmethyl-piperidin-4-yl)-5-methyl-1H-pyrazol-4-yl]-N^4-ethyl-5-trifluoromethyl-pyrimidine-2,4-diamine], the inhibition constant (Ki) was determined as 0.8 nM.

The same assay, now with this note: read-out: LRRK2 Ki (KI), Table 8.
With `CNc1nc(Nc2cn([C@H](C)COC)nc2C)ncc1C(F)(F)F` [Example 200, (R)-N2-(1-(1-methoxypropan-2-yl)-3-methyl-1H-pyrazol-4-yl)-N4-methyl-5-(trifluoromethyl) pyrimidine-2,4-diamine], the Ki came to 12.8 nM.

As to `CNc1nc(Nc2cn(Cc3ccn(C)n3)nc2C)ncc1C(F)(F)F` [Example 325, N4-Methyl-N2-[3-methyl-1-(1-methyl-1H-pyrazol-3-ylmethyl)-1H-pyrazol-4-yl]-5-trifluoromethyl-pyrimidine-2,4-diamine], the inhibition constant Ki amounted to 3.8 nM.

Consider `CCNc1nc(Nc2cn(CC(C)(C)O)nc2C(C)(C)C)ncc1C(F)(F)F` [Example 201, 1-(3-tert-butyl-4-(4-(ethylamino)-5-(trifluoromethyl)pyrimidin-2-ylamino)-1H-pyrazol-1-yl)-2-methylpropan-2-ol], for which the Ki is 420 nM.

Turning to `CNc1nc(Nc2cn(C3CCC(=O)NC3)nc2C)ncc1C(F)(F)F` (centres unmarked) [Example 153, 5-(3-methyl-4-(4-(methylamino)-5-(trifluoromethyl)pyrimidin-2-ylamino)-1H-pyrazol-1-yl)piperidin-2-one], the Ki stood at 9.7 nM.

Turning to `CNc1nc(Nc2cnn(C)c2C(C)C)ncc1C(F)(F)F` [Example 223, N2-(5-isopropyl-1-methyl-1H-pyrazol-4-yl)-N4-methyl-5-(trifluoromethyl) pyrimidine-2,4-diamine], the Ki was 14 nM.

With `CNc1nc(Nc2cn(S(C)(=O)=O)nc2C)ncc1C(F)(F)F` [Example 102, N4-methyl-N2-(3-methyl-1-(methylsulfonyl)-1H-pyrazol-4-yl)-5-(trifluoromethyl) pyrimidine-2,4-diamine], the inhibition constant Ki was determined as 2.9 nM.

For `CNc1nc(Nc2cnn([C@@H]3CCN(C4COC4)C3)c2C)ncc1C(F)(F)F` [Example 211, (R)-N4-methyl-N2-(5-methyl-1-(1-(oxetan-3-yl)pyrrolidin-3-yl)-1H-pyrazol-4-yl)-5-(trifluoromethyl) pyrimidine-2,4-diamine], the inhibition constant Ki came out at 3.3 nM.

As to `CCNc1nc(Nc2cnn(-c3ccc(S(=O)(=O)C4CC4)cc3)c2C)ncc1C(F)(F)F` [Example 174, N2-(1-(4-(cyclopropyl-sulfonyl)phenyl)-5-methyl-1H-pyrazol-4-yl)-N4-ethyl-5-(trifluoromethyl) pyrimidine-2,4-diamine], the Ki was 1.1 nM.

For `CNc1nc(Nc2cn(C3CCOC3)nc2C)ncc1C(F)(F)F` (centres unmarked) [Example 149, N4-methyl-N2-(3-methyl-1-(tetrahydrofuran-3-yl)-1H-pyrazol-4-yl)-5-(trifluoromethyl) pyrimidine-2,4-diamine], the Ki was 6.8 nM.

For the molecule `CNc1nc(Nc2cnn(Cc3ncccn3)c2C)ncc1C(F)(F)F` [Example 315, N4-Methyl-N2-(5-methyl-1-pyrimidin-2-ylmethyl-1H-pyrazol-4-yl)-5-trifluoromethyl-pyrimidine-2,4-diamine], the inhibition constant Ki is 1.4 nM.

`CCNc1nc(Nc2cnn(C3CCOCC3)c2C)ncc1C(F)(F)F` [Example 158, N4-ethyl-N2-(5-methyl-1-(tetrahydro-2H-pyran-4-yl)-1H-pyrazol-4-yl)-5-(trifluoromethyl) pyrimidine-2,4-diamine]: the inhibition constant (Ki) is 0.3 nM.

As to `Cc1c(Nc2ncc(Cl)c(NCC(F)F)n2)cnn1C` [Example 172, 5-chloro-N4-(2,2-difluoroethyl)-N2-(1,5-dimethyl-1H-pyrazol-4-yl)pyrimidine-2,4-diamine], the inhibition constant (Ki) was found to be 7 nM.

In the case of `CNc1nc(Nc2cn(C3CCN(CCOC)CC3)nc2C)ncc1C(F)(F)F` [Example 238, N2-(1-(1-(2-methoxyethyl)piperidin-4-yl)-3-methyl-1H-pyrazol-4-yl)-N4-methyl-5-(trifluoromethyl) pyrimidine-2,4-diamine], the Ki is 16 nM.

Turning to `CNc1nc(Nc2cnn(C3CN(C(C)C)C3)c2C)ncc1C(F)(F)F` [Example 278, N2-[1-(1-Isopropyl-azetidin-3-yl)-5-methyl-1H-pyrazol-4-yl]-N4-methyl-5-trifluoromethyl-pyrimidine-2,4-diamine], the inhibition constant Ki is 1.2 nM.

Consider `CCNc1nc(Nc2cn(C(C)(C)CN3CCOCC3)nc2C)ncc1C(F)(F)F` [Example 298, N2-[1-(1,1-Dimethyl-2-morpholin-4-yl-ethyl)-3-methyl-1H-pyrazol-4-yl]-N4-ethyl-5-trifluoromethyl-pyrimidine-2,4-diamine], for which the Ki stood at 50.6 nM.

On to `CCNc1nc(Nc2cn(C(C)(C)c3nnc[nH]3)nc2C)ncc1C(F)(F)F` [Example 327, N4-Ethyl-N2-{3-methyl-1-[1-methyl-1-(4H-[1,2,4]triazol-3-yl)-ethyl]-1H-pyrazol-4-yl}-5-trifluoromethyl-pyrimidine-2,4-diamine], for which the Ki stood at 0.5 nM.
